Measurements from paper PMC8179271, “Identification of β-strand mediated protein–protein interaction inhibitors using ligand-directed fragment ligation” (Chemical Science, 2021).
Like-named read-outs stand apart in the source and are kept apart here. Residues, ends and D or L forms follow the SMILES beside them. *: point of attachment. FITC = O=C1OC2(c3ccc(O)cc3Oc3cc(O)ccc32)c2ccc(NC(=S)*)cc21; Ahx = NCCCCCC(=O)O

Experiments:
Assay type in all cases: binding
SHANK1 PDZ [1] = biological target: T1, SHANK1 PDZ (Homo sapiens, UniProt Q9Y566); experiment: Isothermal titration calorimetry (ITC); settings: for Kd / n (ITC stoichiometry) / ΔH / ΔS: 25 mM Tris pH 7.5, 150 mM NaCl, 25 °C
T1 construct: Human Shank1 PDZ domain (656-762) was cloned into the pGEX-6P-2 expression vector; GST (N, cleaved yes); made in house; host or cells: E. coli BL21 Gold
T1 sequence (Q9Y566 656-762): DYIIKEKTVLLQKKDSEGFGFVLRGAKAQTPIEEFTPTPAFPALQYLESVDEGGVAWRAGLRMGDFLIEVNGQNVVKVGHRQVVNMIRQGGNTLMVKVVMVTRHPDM
Protocol: Fitted thermograms and thermodynamic signatures for the tested peptides and hydrazones. […] For individual raw ITC data and fitted thermograms see Fig. S14. ^† […]
Figure S14. Raw ITC data (top) and fitted thermograms (bottom) for the tested hydrazone hits and […]
0.75-1 mM peptide or hydrazone solution to 75-150 µM protein.
(1 picture or pasted object on this page, not shown here)
2.5. Isothermal tritration calorimetry
ITC experiments were carried out using Microcal ITC200i instrument (Malvern) at 25°C […]
Shank1 PDZ was dialysed against the buffer prior to experiment, lyophilized peptides and hydrazones were dissolved in the same buffer. 75 or […]
depending on compound solubility, from the syringe using 2 µL injections with 120 s spacing between the injections for 20 injection. Heats of peptide dilution w ere measured by titrating the peptide into buffer and subtracted from each measurement. Dat a was analysed using Microcal Origin 8 and fitt ed to a one-binding site model. […]

SHANK1 PDZ [2] = biological target: T1, SHANK1 PDZ; experiment: Fluorescence anisotropy competition assay (FITC-Ahx-TRL-COOH tracer); settings: 50 mM NH4Ac pH 6.5, 10 mM aniline
Protocol: (d) FA competition curves for hybrids from the extended screen. All screening and validation assays were performed in 50 mM NH4Ac buffer, pH 6.5, 10 mM aniline using 1 μM final protein concentration and 10 nM FITC-Ahx-TRL-COOH as tracer at room temperature. […] Anisotropy is expressed relative to the control experiment where no competitor is present. Hit thresholds were defined based on the relative anisotropy of the (i) buffer control (rbuffer − 3σ) and (ii) the TRL control (rTRL − 3σ). Compounds below these thresholds are coloured blue and red respectively.
(0.22 µm membrane) and applied to glutathione beads and washed with 10 CV 20 mM Tris, pH 8, 500 mM NaCl. GST was cleaved on-column overnight at 4 °C using Prescission protease.
The eluted fractions were concentrated and purified by size-exclusion chromatography on S75 26/60 pg column in 20 mM Tris, 150 mM NaCl, 5% glycerol pH 7.5 buffer. Collected fractions were analysed by SDS-PAGE and concentrated. Pure protein was analysed by high resolution […]
determined by UV-VIS spectroscopy using the 8480 M-1 cm-1 extinction coefficient. […]
2.3. Aldehyde library selection
A diverse subset of fragments was selected from commercially available small molecule aldehydes (AldrichCPR, Fluorochem and Acros). Available compounds having one aldehyde functionality were filtered first based on physicochemical properties: 80 Da < MW < 400 Da, HBA, HBD ≤ 3, and clogP ≤ 5. To select a diverse set of compounds , first, binary molecular fingerprint s were generated for each molecule using the FragFp descriptor implemented in DataWarrior (openmolecules.org) , which relies on a predefined substructure fragment library and is used to compare 2D structural similarities. Then, using the same software , structurall y dissimilar subset of compounds was selected based on the molecular fingerprints. Compounds were further excluded based on undesired functional groups and commerical availability , […]
carboxylic acid functional groups.
2.4. Fluorescence anisotropy
Fluorescence anisotropy assays were performed in 384-well plates (Greiner Bio-one) and the fluorescence anisotropy measured using a Perkin Elmer EnVisionTM 2103 MultiLabel plate reader, with excitation at 480 nm (30 nm bandwidth), polarised dichroic mirror at 505 nm and […]
°C. Fluorescence anisotropy data was processed as described previously.4 The data from both […]
the P (perpendicular intensity) and S (parallel intensity) channels, resulting from this measurement and corrected by subtracting the corresponding control wells, were used to calculate the intensity and anisotropy for each well following Equations 1 and 2: […]
r = anisotropy, I = total intensity, P = perpendicular intensity, S = parallel intensity, G is an […]
Assays were performed in 50 mM NH4Ac, 10 mM aniline, pH 6.5 buffer. Shank 1 PDZ was dialysed into the assay buffer prior to the experiment. […]

SHANK1 PDZ [3] = biological target: T1, SHANK1 PDZ; experiment: Fluorescence anisotropy direct titration with FITC-labelled GKAP tracer
Protocol: A diversity-based selection was performed on commercially available aldehyde fragments obeying guidelines for fragment-based drug design,[75] resulting in a small library of 129 compounds (A001–A129, Table S1 and Fig. S1 ^†). […] To allow us to perform the hybrid formation and screening in the presence of the target protein in a single step, it was necessary to first establish that SHANK1 PDZ was still able to bind to its natural ligand under the same conditions.
Figure S2. Rate of hydrazone exchange in 50 mM ammonium-acetate (NH4Ac), pH 6.5, 10 mM aniline buffer using 100 µM compound 4-A001 and 5 equivalents of three different aldehydes (corresponding to R2 groups) at room temperature. Hydrazone exchange was monitored by LC -MS; peaks for extracted ion chromatograms were integrated and normalized . […]
Figure S3. Fluorescence anisotropy direct titration of S HANK1 PDZ in 50 mM NH4Ac, pH 6.5 10 mM aniline containing buffer using 50 nM FITC-Ahx-GKAP as tracer. Plate was read after 24 hr incubation […]
Assays were performed in 50 mM NH4Ac, 10 mM aniline, pH 6.5 buffer. […] Fluorescence anisotropy direct titration assays were performed with protein concentration diluted over 24 points using ½ dilutions. […]
final protein concentration. […] For control wells, the tracer peptide was replaced with an identical volume of assay buffer and plates were read immediately, and after an hour or after 24 hours . […]

[4] = biological target: T2, PDZ domain of PSD-95 (PSD-95 PDZ1) (Homo sapiens, UniProt P78352); experiment: 1H-15N HSQC chemical shift perturbation titration; settings: Fig. S24
T2 construct: made in house
Description: Since Class I PDZ domains bind to consensus sequences,[71,72] we set out to further assess the selectivity of the peptide-fragment hybrids against another Class I PDZ domain. We compared the ability to bind to SHANK1 PDZ against the ability to bind to the PDZ domain of PSD-95, a therapeutically important target in neuronal diseases and cancer.[58] We monitored the binding using chemical shift perturbations in the ^1H–^15N HSQC spectra of the PDZ domain of PSD-95 (Fig. S22, S23, Tables S7 and S8 ^†). […] However, PSD-95 also lacks the patch of cationic residues proximal to the C-terminal carboxylate binding site. Such a result provides confidence that the dynamic ligation screening approach used here can encode and retain selectivity.
PSD 95 PDZ1 amino acid sequence
Figure S22. Overlay of plots for 4-A047 with Ligand:protein ratio ranging from 1:1 to 100:1. The gradual change in chemical shifts of limited residues indicate that the binding of the ligand is specific and to the putative ligand binding site.
Figure S23. Mapping of chemical shift changes onto the structure of PSD95 PDZ1 using PDB Accession Code 2KA9 (cypin peptide in magenta). Residues whose chemical shifts are affected are coloured yellow; these residues line the binding site. […]
Table S7. Concentration dependent shift changes of compound 4-A047 for a few residues whose chemical shifts have been assigned […]

[5] = x-A001 incubated with 5 equiv aldehyde in presence of protein for 24 h, then 10 nM FITC-Ahx-TRL-COOH, SHANK1 PDZ 1 M, read-out: IC50 (Fig. S7-S9, S11, S12, hybrids selected for validation from single point screens)
[6] = Table S2, relative to core Ac-TRL-OH motif
[7] = 1 µM Shank1 PDZ, 10 nM FITC-Ahx-TRL-COOH, plates read immediately, room temperature, read-out: IC50 (Fig. S4, parent peptides and benzaldehyde hydrazones)

T2 sequence (P78352 with tags, fused parts or gaps): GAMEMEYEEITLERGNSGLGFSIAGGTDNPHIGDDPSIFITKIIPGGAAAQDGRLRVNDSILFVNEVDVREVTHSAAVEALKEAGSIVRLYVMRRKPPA

| Compound | Kd (SHANK1 PDZ [1]) [µM] | IC50 (SHANK1 PDZ [2]; [5]) [µM] | other results |
| --- | --- | --- | --- |
| CC(C)C[C@H](NC(=O)[C@H](CCCNC(=N)N)NC(=O)[C@@H](NC(=O)[C@H](CCC(N)=O)NC(=O)[C@H](C)NC(=O)[C@H](CCC(=O)O)NC(=O)CCCCCNC(=S)Nc1ccc2c(c1)C(=O)OC21c2ccc(O)cc2Oc2cc(O)ccc21)[C@@H](C)O)C(=O)O [FITC-Ahx-GKAP] ({FITC-Ahx}-EAQTRL-OH; C-terminus assumed) | – | – | Kd (SHANK1 PDZ [3]; 50 mM NH4Ac pH 6.5, 10 mM aniline, 50 nM tracer, read after 24 hr incubation at room temperature, read-out: KD (Fig. S3)): 0.96 ± 0.08 µM; Kd (SHANK1 PDZ [3]; KD (initial) of FITC labelled GKAP, pH 6.5, 10 mM aniline, did not significantly change over 24 hours): ~1 µM |
| CC(C)C[C@H](NC(=O)[C@H](CCCNC(=N)N)NC(=O)[C@@H](NC(=O)CCC(=O)NN=Cc1ccccc1)[C@@H](C)O)C(=O)O [3-A001] | 16 ± 3 | – | n (ITC stoichiometry) (SHANK1 PDZ [1]): 1.04 ± 0.04; ΔH (SHANK1 PDZ [1]): -2.32 ± 0.14 kcal/mol; ΔS (SHANK1 PDZ [1]): 59.0 J mol^−1 K^−1; GE group efficiency (-ΔΔG/ΔNnH) (SHANK1 PDZ [1]; [6]): 0.07; ΔΔG (ΔGCompound-ΔGAc-TRL-OH) (SHANK1 PDZ [1]; [6]): -0.201 kcal/mol; IC50 (SHANK1 PDZ [2]; [7]): 51 ± 3 µM |
| Ac-EAQTRL-OH [GKAP, Ac-EAQTRL-COOH, reference compound] | – | – | n (ITC stoichiometry) (SHANK1 PDZ [1]): 1.07 ± 0.01; ΔH (SHANK1 PDZ [1]): -7.07 ± 0.096 kcal/mol; ΔS (SHANK1 PDZ [1]): 9.7 J mol^−1 K^−1; ΔΔG (ΔGCompound-ΔGAc-TRL-OH) (SHANK1 PDZ [1]; [6]): -1.44 kcal/mol |
| CC(C)C[C@H](NC(=O)[C@H](CCCNC(=N)N)NC(=O)[C@@H](NC(=O)CCCC(=O)NN=Cc1ccccc1)[C@@H](C)O)C(=O)O [4-A001] | 14.8 ± 0.8 | – | IC50 (SHANK1 PDZ [2]; [7]): 19 ± 3 µM |
| CC(C)C[C@H](NC(=O)[C@H](CCCNC(=N)N)NC(=O)[C@@H](NC(=O)CCC(=O)N/N=C/c1ccc(C(=O)O)cc1)[C@@H](C)O)C(=O)O [3-A048] | 10 ± 1 | 11 ± 1 | – |

More lines, in order of falling Kd (SHANK1 PDZ [1]), values ahead:

| Kd (SHANK1 PDZ [1]) [µM] | IC50 (SHANK1 PDZ [2]; [5]) [µM] | Compound | other results |
| --- | --- | --- | --- |
| 8 ± 1 | 14 ± 1 | CC(C)C[C@H](NC(=O)[C@H](CCCNC(=N)N)NC(=O)[C@@H](NC(=O)CCC(=O)N/N=C/c1ccccc1C(=O)O)[C@@H](C)O)C(=O)O [3-A047] | – |
| 7.1 ± 0.9 | 9 ± 1.6 | CC(C)C[C@H](NC(=O)[C@H](CCCNC(=N)N)NC(=O)[C@@H](NC(=O)CCC(=O)N/N=C/c1ccc(Cl)cc1C(=O)O)[C@@H](C)O)C(=O)O [3-A144] | – |
| 4.8 ± 0.4 | – | CC(C)C[C@H](NC(=O)[C@H](CCCNC(=N)N)NC(=O)[C@@H](NC(=O)CCC(=O)N/N=C/c1cccc(OC(C(=O)O)c2ccccc2)c1)[C@@H](C)O)C(=O)O (stereo partly drawn) [3-A161] | – |
| 4.6 ± 0.2 | 7.3 ± 0.6 | CC(C)C[C@H](NC(=O)[C@H](CCCNC(=N)N)NC(=O)[C@@H](NC(=O)CCCC(=O)N/N=C/c1ccccc1C(=O)O)[C@@H](C)O)C(=O)O [4-A047] | EC50 [4]: 2400 ± 300 µM |
| 3.1 ± 0.2 | 7.5 ± 0.8 | CC(C)C[C@H](NC(=O)[C@H](CCCNC(=N)N)NC(=O)[C@@H](NC(=O)CCCC(=O)N/N=C/c1ccc(C(=O)O)cc1)[C@@H](C)O)C(=O)O [4-A048] | – |
| 3.1 ± 0.2 | 3.7 ± 0.4 | CC(C)C[C@H](NC(=O)[C@H](CCCNC(=N)N)NC(=O)[C@@H](NC(=O)CCCC(=O)N/N=C/c1ccc(Cl)cc1C(=O)O)[C@@H](C)O)C(=O)O [4-A144] | – |
| 1.54 ± 0.05 | – | CC(C)C[C@H](NC(=O)[C@H](CCCNC(=N)N)NC(=O)[C@@H](NC(=O)CCCC(=O)N/N=C/c1cccc(OC(C(=O)O)c2ccccc2)c1)[C@@H](C)O)C(=O)O (stereo partly drawn) [4-A161] | – |
